Source: PMC13136073, “Discovery of 4‐Quinazolinone‐Containing Phenylalanine Derivatives as Potent, Resistant‐Tolerant HIV Capsid Inhibitors” (MedComm, 2026)

Assay: Stability in human liver microsomes
Assay type: in vitro ADME
Conditions: HLM, scaled

**Q.** With `O=C(O)Cc1ccccc1Nc1c(Cl)cccc1Cl` [Diclofenac, diclofenac] as the compound, how does the “CLint(liver)” value read?
**A.** Its value is 200.0 mL/min/kg.
